Columns and labels:
Type in all cases: biochemical
ROCK2 [1] = target: T1, ROCK2 (Homo sapiens, UniProt O75116); assay: In vitro inhibitory activity assay ROCK2 (Method B, ADP-Glo, 200 μM ATP); settings: ATP 200 μM, read-out: Method B ROCK 2 (Ki)
Protocol: (§1) In Vitro Inhibitory Activity Assay Description ROCK1 and ROCK2
(§2) The effectiveness of compounds of the present invention to inhibit Rho kinase activity can be determined in a 10 μl assay containing 40 mM Tris pH7.5, 20 mM MgCl2 0.1 mg/mL BSA, 50 μM DTT and 2.5 μM peptide substrate (Myelin Basic Protein) using an ADP-Glo kit (Promega). Compounds were dissolved in DMSO such that the final concentration of DMSO was 1% in the assay. All reactions/incubations are performed at 25° C. Compound (2 μL) and either Rho kinase 1 or 2 (4 μl) were mixed and incubated for 30 min. Reactions were initiated by addition of ATP (4 μL) such that the final concentration of ATP in the assay was 200 μM. After a 1 hour incubation 10111 of ADP-Glo Reagent was added and after a further 45 minute incubation 20 μL of Kinase Detection Buffer was added and the mixture incubated for a further 30 minutes. The luminescent signal was measured on a luminometer. […] Compounds were tested in dose-response format and the inhibition of kinase activity was calculated at each concentration of compound. To determine the IC50 (concentration of compound required to inhibit 50% of the enzyme activity) data were fit to a plot of % inhibition vs Log10 compound concentration using a sigmoidal fit with a variable slope and fixing the maximum to 100% and the minimum to 0%. To determine the Ki values the Cheng-Prusoff equation was utilized (Ki=IC50/(1[S]/Km).

ROCK1 [2] = target: T2, ROCK1 (Homo sapiens, UniProt Q13464); assay: In vitro inhibitory activity assay ROCK1 (Method B, ADP-Glo, 200 μM ATP); settings: ATP 200 μM, read-out: Method B ROCK 1 (Ki)
T2 sequence (Q13464 whole entry): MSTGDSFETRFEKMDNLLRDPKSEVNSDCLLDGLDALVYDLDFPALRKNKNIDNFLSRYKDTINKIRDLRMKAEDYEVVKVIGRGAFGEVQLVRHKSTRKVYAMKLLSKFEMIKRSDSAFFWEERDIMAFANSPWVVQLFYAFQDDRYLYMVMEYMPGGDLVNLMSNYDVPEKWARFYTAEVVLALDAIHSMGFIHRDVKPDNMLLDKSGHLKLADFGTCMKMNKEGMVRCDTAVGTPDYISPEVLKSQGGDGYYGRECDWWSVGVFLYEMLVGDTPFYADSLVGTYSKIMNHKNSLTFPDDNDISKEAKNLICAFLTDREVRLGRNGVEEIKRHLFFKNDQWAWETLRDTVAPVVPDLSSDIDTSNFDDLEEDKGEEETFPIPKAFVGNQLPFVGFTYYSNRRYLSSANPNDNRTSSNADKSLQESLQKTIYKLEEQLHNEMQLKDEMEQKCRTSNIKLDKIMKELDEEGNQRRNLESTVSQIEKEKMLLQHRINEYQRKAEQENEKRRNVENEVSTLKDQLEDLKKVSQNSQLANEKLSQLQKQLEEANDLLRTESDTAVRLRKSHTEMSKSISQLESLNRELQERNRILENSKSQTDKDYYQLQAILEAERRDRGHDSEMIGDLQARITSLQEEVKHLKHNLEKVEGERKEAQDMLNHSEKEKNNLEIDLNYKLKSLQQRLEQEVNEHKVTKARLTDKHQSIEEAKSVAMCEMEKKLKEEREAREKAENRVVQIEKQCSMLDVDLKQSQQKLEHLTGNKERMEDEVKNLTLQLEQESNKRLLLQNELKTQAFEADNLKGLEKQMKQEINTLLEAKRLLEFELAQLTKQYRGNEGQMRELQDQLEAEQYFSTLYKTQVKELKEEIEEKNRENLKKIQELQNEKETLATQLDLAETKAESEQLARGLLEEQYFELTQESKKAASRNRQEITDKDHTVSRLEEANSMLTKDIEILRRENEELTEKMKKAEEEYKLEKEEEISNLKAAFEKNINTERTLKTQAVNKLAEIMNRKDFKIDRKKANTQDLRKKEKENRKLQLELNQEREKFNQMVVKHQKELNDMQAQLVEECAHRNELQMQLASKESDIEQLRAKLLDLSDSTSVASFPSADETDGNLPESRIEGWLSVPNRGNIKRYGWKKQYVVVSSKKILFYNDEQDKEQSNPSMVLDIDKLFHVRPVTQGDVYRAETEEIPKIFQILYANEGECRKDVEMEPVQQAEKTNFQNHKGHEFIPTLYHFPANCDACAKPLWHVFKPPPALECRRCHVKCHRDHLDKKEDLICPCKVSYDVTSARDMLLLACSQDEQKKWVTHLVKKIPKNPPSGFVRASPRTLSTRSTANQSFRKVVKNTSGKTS
Protocol: as §1, §2

ROCK2 [3] = target: T1, ROCK2; assay: In vitro inhibitory activity assay ROCK2 (Method A, ADP-Glo, 10 μM ATP); settings: ATP 10 μM, read-out: Method A ROCK 2 (Ki)
Protocol: (§3) In vitro inhibitory activity assay description ROCK1 and ROCK2
as §2, with “(2 uL)” for “(2 μL)”, “was 10” for “was 200”, “incubation […]” for “incubation 10111”, “45 minutes” for “45 minute”, “20 uL” for “20 μL”, “utilized (Ki=IC50/(1+[S]/Km).” for “utilized (Ki=IC50/(1[S]/Km).”

ROCK1 [4] = target: T2, ROCK1; assay: In vitro inhibitory activity assay ROCK1 (Method A, ADP-Glo, 10 μM ATP); settings: ATP 10 μM, read-out: Method A ROCK 1 (Ki)
Protocol: as §3
as §2, with “(2 uL)” for “(2 μL)”, “was 10” for “was 200”, “incubation […]” for “incubation 10111”, “45 minutes” for “45 minute”, “20 uL” for “20 μL”, “utilized (Ki=IC50/(1+[S]/Km).” for “utilized (Ki=IC50/(1[S]/Km).”

T1 sequence (O75116 whole entry): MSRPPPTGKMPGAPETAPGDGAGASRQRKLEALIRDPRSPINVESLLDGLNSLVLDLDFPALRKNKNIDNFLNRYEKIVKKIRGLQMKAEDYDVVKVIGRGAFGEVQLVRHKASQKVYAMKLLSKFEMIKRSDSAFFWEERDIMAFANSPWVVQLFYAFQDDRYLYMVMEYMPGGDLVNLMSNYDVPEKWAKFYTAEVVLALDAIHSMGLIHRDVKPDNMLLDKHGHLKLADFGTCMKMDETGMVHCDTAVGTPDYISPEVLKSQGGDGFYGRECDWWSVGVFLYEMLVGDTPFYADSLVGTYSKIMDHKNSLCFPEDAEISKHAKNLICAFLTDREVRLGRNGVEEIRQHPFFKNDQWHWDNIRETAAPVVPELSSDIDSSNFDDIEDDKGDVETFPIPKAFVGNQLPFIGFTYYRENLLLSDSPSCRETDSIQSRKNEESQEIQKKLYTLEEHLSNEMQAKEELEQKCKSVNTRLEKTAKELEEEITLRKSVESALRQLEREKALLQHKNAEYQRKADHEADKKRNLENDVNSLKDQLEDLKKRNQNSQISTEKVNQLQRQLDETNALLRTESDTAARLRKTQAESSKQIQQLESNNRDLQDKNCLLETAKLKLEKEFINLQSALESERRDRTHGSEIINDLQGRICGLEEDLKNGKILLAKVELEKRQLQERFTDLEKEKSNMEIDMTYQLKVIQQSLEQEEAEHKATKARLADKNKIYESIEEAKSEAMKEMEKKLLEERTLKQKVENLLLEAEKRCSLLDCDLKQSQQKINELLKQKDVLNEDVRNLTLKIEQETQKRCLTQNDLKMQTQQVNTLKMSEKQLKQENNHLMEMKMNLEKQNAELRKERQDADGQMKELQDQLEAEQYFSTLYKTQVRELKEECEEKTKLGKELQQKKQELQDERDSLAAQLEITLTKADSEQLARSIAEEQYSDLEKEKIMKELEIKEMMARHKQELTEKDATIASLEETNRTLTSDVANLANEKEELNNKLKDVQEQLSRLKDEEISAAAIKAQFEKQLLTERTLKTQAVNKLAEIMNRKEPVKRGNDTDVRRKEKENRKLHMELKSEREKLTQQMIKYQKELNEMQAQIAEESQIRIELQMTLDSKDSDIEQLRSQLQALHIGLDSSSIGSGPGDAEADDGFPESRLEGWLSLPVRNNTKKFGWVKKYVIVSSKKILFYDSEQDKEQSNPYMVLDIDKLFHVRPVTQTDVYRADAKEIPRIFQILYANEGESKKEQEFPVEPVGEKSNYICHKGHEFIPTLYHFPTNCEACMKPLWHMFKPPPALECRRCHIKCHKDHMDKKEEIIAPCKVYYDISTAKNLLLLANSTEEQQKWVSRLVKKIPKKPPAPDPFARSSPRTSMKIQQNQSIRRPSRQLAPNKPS

SMILES	Ki (ROCK2 [1]) [nM]	Ki (ROCK1 [2]) [nM]	Ki (ROCK2 [3]) [nM]	Ki (ROCK1 [4]) [nM]
O=C(NCc1ccccn1)c1cccc(CNc2ncc(-c3cn[nH]c3)c3c2CCO3)c1 [Example 4, 3-(((7-(1H-pyrazol-4-yl)-2,3-dihydrofuro[3,2-c]pyridin-4-yl)amino)methyl)-N-(pyridin-2-ylmethyl)benzamide]	3 to 30	3 to 30	–	–
COCCNC(=O)c1cccc(CNc2ncc(-c3cn[nH]c3)c3c2CCO3)c1 [Example 7, 3-(((7-(1H-pyrazol-4-yl)-2,3-dihydrofuro[3,2-c]pyridin-4-yl)amino)methyl)-N-(2-methoxyethyl)benzamide]	≤ 3	3 to 30	–	–
O=C(NCc1cncnc1)c1cccc(CNc2ncc(-c3cn[nH]c3)c3c2CCO3)c1 [Example 9, 3-(((7-(1H-pyrazol-4-yl)-2,3-dihydrofuro[3,2-c]pyridin-4-yl)amino)methyl)-N-(pyrimidin-5-ylmethyl)benzamide]	3 to 30	3 to 30	–	–
O=C(NCc1ccon1)c1cccc(CNc2ncc(-c3cn[nH]c3)c3c2CCO3)c1 [Example 13, 3-(((7-(1H-pyrazol-4-yl)-2,3-dihydrofuro[3,2-c]pyridin-4-yl)amino)methyl)-N-(isoxazol-3-ylmethyl)benzamide]	≤ 3	3 to 30	–	–
O=C(NCc1cscn1)c1cccc(CNc2ncc(-c3cn[nH]c3)c3c2CCO3)c1 [Example 14, 3-(((7-(1H-pyrazol-4-yl)-2,3-dihydrofuro[3,2-c]pyridin-4-yl)amino)methyl)-N-(thiazol-4-ylmethyl)benzamide]	≤ 3	≤ 3	–	–
CN(C)CCn1ncc2cc(C(=O)Nc3cccc(CNc4ncc(-c5cn[nH]c5)c5c4CCO5)c3)ccc21 [Example 43, N-(3-(((7-(1H-pyrazol-4-yl)-2,3-dihydrofuro[3,2-c]pyridin-4-yl)amino)methyl)phenyl)-1-(2-(dimethylamino)ethyl)-1H-indazole-5-carboxamide]	≤ 3	≤ 3	≤ 3	≤ 3
CN1CCC(n2ncc3cc(C(=O)Nc4cccc(CNc5ncc(-c6cn[nH]c6)c6c5CCO6)c4)ccc32)CC1 [Example 44, N-(3-(((7-(1H-pyrazol-4-yl)-2,3-dihydrofuro[3,2-c]pyridin-4-yl)amino)methyl)phenyl)-1-(1-methylpiperidin-4-yl)-1H-indazole-5-carboxamide]	≤ 3	≤ 3	≤ 3	≤ 3
CN1CCc2cc(C(=O)Nc3cccc(CNc4ncc(-c5cn[nH]c5)c5c4CCO5)c3)ccc2C1 [Example 45, N-(3-(((7-(1H-pyrazol-4-yl)-2,3-dihydrofuro[3,2-c]pyridin-4-yl)amino)methyl)phenyl)-2-methyl-1,2,3,4-tetrahydroisoquinoline-6-carboxamide]	≤ 3	≤ 3	≤ 3	≤ 3
O=C(Nc1cccc(CNc2ncc(-c3cn[nH]c3)c3c2CCO3)c1)c1ccc2c(cnn2CCN2CCOCC2)c1 [Example 46, N-(3-(((7-(1H-pyrazol-4-yl)-2,3-dihydrofuro[3,2-c]pyridin-4-yl)amino)methyl)phenyl)-1-(2-morpholinoethyl)-1H-indazole-5-carboxamide]	≤ 3	≤ 3	≤ 3	≤ 3

Continued, values first:

Ki (ROCK2 [1]) [nM]	Ki (ROCK1 [2]) [nM]	Ki (ROCK2 [3]) [nM]	Ki (ROCK1 [4]) [nM]	SMILES
–	–	≤ 3	≤ 3	O=C(Nc1cc(CNc2ncc(-c3cn[nH]c3)c3c2CCO3)ccc1F)c1ccc2c(c1)CCNC2 [Example 47, N-(5-(((7-(1H-pyrazol-4-yl)-2,3-dihydrofuro[3,2-c]pyridin-4-yl)amino)methyl)-2-fluorophenyl)-1,2,3,4-tetrahydroisoquinoline-6-carboxamide]
≤ 3	≤ 3	≤ 3	≤ 3	O=C(Nc1cccc(CNc2ncc(-c3cn[nH]c3)c3c2CCO3)c1)c1ncc(CN2CCCC2)s1 [Example 48, N-(3-(((7-(1H-pyrazol-4-yl)-2,3-dihydrofuro[3,2-c]pyridin-4-yl)amino)methyl)phenyl)-5-(pyrrolidin-1-ylmethyl)thiazole-2-carboxamide]
–	–	≤ 3	≤ 3	CN(C)Cc1cccc(C(=O)Nc2cccc(CNc3ncc(-c4cn[nH]c4)c4c3CCO4)c2)c1 [Example 49, N-(3-(((7-(1H-pyrazol-4-yl)-2,3-dihydrofuro[3,2-c]pyridin-4-yl)amino)methyl)phenyl)-3-((dimethylamino)methyl)benzamide]
–	–	3 to 30	3 to 30	O=C(Cc1ccccc1)Nc1cccc(CNc2ncc(-c3cn[nH]c3)c3c2CCO3)c1 [Example 50, N-(3-(((7-(1H-pyrazol-4-yl)-2,3-dihydrofuro[3,2-c]pyridin-4-yl)amino)methyl)phenyl)-2-phenylacetamide]
–	–	≤ 3	≤ 3	CN1CCc2cc(C(=O)Nc3cccc(CNc4ncc(-c5cn[nH]c5)c5c4CCO5)c3)cnc2C1 [Example 51, N-(3-(((7-(1H-pyrazol-4-yl)-2,3-dihydrofuro[3,2-c]pyridin-4-yl)amino)methyl)phenyl)-7-methyl-5,6,7,8-tetrahydro-1,7-naphthyridine-3-carboxamide]
–	–	3 to 30	3 to 30	CC(=O)Nc1cccc(C(C)Nc2ncc(-c3cn[nH]c3)c3c2CCO3)c1 (stereo not drawn) [Example 52, N-(3-(1-((7-(1H-pyrazol-4-yl)-2,3-dihydrofuro[3,2-c]pyridin-4-yl)amino)ethyl)phenyl)acetamide]
–	–	≤ 3	≤ 3	O=C(NCc1ccncc1)c1cccc(CNc2ncc(-c3cn[nH]c3)c3c2CCO3)c1 [Example 53, 3-(((7-(1H-pyrazol-4-yl)-2,3-dihydrofuro[3,2-c]pyridin-4-yl)amino)methyl)-N-(pyridin-4-ylmethyl)benzamide]
–	–	≤ 3	≤ 3	O=C(NC1CCN(Cc2ccccc2)CC1)c1cccc(CNc2ncc(-c3cn[nH]c3)c3c2CCO3)c1 [Example 54, 3-(((7-(1H-pyrazol-4-yl)-2,3-dihydrofuro[3,2-c]pyridin-4-yl)amino)methyl)-N-(1-benzylpiperidin-4-yl)benzamide]
> 30	> 30	–	–	CNC(=O)c1cccc(CNc2ncc(-c3cncs3)c3c2CCO3)c1 [Example A, N-Methyl-3-(((7-(thiazol-5-yl)-2,3-dihydrofuropyridin-4-yl)amino)methyl)benzamide, reference compound]
3 to 30	> 30	–	–	CNC(=O)c1cccc(CNc2ncc(-c3cnco3)c3c2CCO3)c1 [Example B, N-Methyl-3-(((7-(oxazol-5-yl)-2,3-dihydrofuro[3,2-c]pyridin-4-yl)amino)methyl)benzamide, reference compound]

Source: US20240082223A1, “DIHYDROFUROPYRIDINE DERIVATIVES AS RHO- KINASE INHIBITORS” (CHIESI FARMACEUTICI S.P.A., priority 2020, published 2024)
